Measurements taken from PubChem BioAssay AID1963826 (Molecular Pharmacology Branch, DTP, NCI, 2024).

System: 926638-142-R-J1-PDC complex spheroid viability
Test: Anticancer human tumor 926638-142-R-J1-PDC patient-derived endometrial carcinoma cell line growth inhibition [POLQ]
Conditions: for IC50: curve of first compound; for viability, T/C: stronger effect = lower value; active means viability on the fitted dose curve at most 10% of control; inactive means the rest
Procedure, shortened: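 Growth inhibition in 3D: complex spheroids (tumor PDC, HUVEC, MSC) treated with POLQ inhibitor combinations; where Cmax unknown, highest tested concentration 10 microM, except SN-38 at 1 microM.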

[1] = second compound 0.0316 µM, first compound 0.0316 µM
[2] = second compound 0.0316 µM, first compound 0.1 µM
[3] = second compound 0.0316 µM, first compound 0.316 µM
[4] = second compound 0.0316 µM, first compound 1 µM
[5] = second compound 0.0316 µM, first compound 3.16 µM
[6] = second compound 0.0316 µM, first compound 10 µM
[7] = second compound 0.1 µM, first compound 0.0316 µM
[8] = second compound 0.1 µM, first compound 0.1 µM
[9] = second compound 0.1 µM, first compound 0.316 µM
[10] = second compound 0.1 µM, first compound 1 µM
[11] = second compound 0.1 µM, first compound 3.16 µM
[12] = second compound 0.1 µM, first compound 10 µM
[13] = second compound 0.316 µM, first compound 0.0316 µM
[14] = second compound 0.316 µM, first compound 0.1 µM
[15] = second compound 0.316 µM, first compound 0.316 µM
[16] = second compound 0.316 µM, first compound 1 µM
[17] = second compound 0.316 µM, first compound 3.16 µM
[18] = second compound 0.316 µM, first compound 10 µM
[19] = second compound 1 µM, first compound 0.0316 µM
[20] = second compound 1 µM, first compound 0.1 µM
[21] = second compound 1 µM, first compound 0.316 µM
[22] = second compound 1 µM, first compound 1 µM
[23] = second compound 1 µM, first compound 3.16 µM
[24] = second compound 1 µM, first compound 10 µM
[25] = second compound 3.16 µM, first compound 0.0316 µM
[26] = second compound 3.16 µM, first compound 0.1 µM
[27] = second compound 3.16 µM, first compound 0.316 µM
[28] = second compound 3.16 µM, first compound 1 µM
[29] = second compound 3.16 µM, first compound 3.16 µM
[30] = second compound 3.16 µM, first compound 10 µM
[31] = second compound 10 µM, first compound 0.0316 µM
[32] = second compound 10 µM, first compound 0.1 µM
[33] = second compound 10 µM, first compound 0.316 µM
[34] = second compound 10 µM, first compound 1 µM
[35] = second compound 10 µM, first compound 3.16 µM
[36] = second compound 10 µM, first compound 10 µM
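Further: spheroids exposed to drugs for one week before readout.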
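Wherever viability, T/C is given: percent viability relative to DMSO vehicle control wells set as 100%.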

C=CC(=O)N1CCN(c2nc(=O)n(-c3c(C)ccnc3C(C)C)c3nc(-c4c(O)cccc4F)c(F)cc23)C(C)C1 (stereo unspecified) + Cc1cccc(N(C)C(=O)C2C(O)CCN2c2nc(C)cc(C(F)(F)F)c2C#N)c1
> 10 µM: IC50 (second compound 0.0316 µM) | IC50 (second compound 0.1 µM) | IC50 (second compound 0.316 µM) | IC50 (second compound 1 µM) | IC50 (second compound 10 µM)
6.59 µM: IC50 (second compound 3.16 µM)
inactive: viability, T/C [1] 84.5% | viability, T/C [2] 78% | viability, T/C [3] 67.2% | viability, T/C [4] 76.1% | viability, T/C [5] 66% | viability, T/C [6] 59.1% | viability, T/C [7] 82.8% | viability, T/C [8] 78.7% | viability, T/C [9] 94% | viability, T/C [10] 76.6% | viability, T/C [11] 70.8% | viability, T/C [12] 65.5% | viability, T/C [13] 97.4% | viability, T/C [14] 90.3% | viability, T/C [15] 91.5% | viability, T/C [16] 74.2% | viability, T/C [17] 70% | viability, T/C [18] 55.6% | viability, T/C [19] 74.8% | viability, T/C [20] 84.7% | viability, T/C [21] 79.2% | viability, T/C [22] 69.9% | viability, T/C [23] 72.7% | viability, T/C [24] 49.6% | viability, T/C [25] 91.8% | viability, T/C [26] 82.7% | viability, T/C [27] 84.7% | viability, T/C [28] 86% | viability, T/C [29] 74.1% | viability, T/C [30] 36.1% | viability, T/C [31] 90.7% | viability, T/C [32] 80.8% | viability, T/C [33] 94.9% | viability, T/C [34] 77% | viability, T/C [35] 78% | viability, T/C [36] 52.9%

CC(C)n1c(=O)n(C)c2cnc3cc(F)c(-c4ccc(OCCCN5CCCCC5)nc4)cc3c21 + Cc1cccc(N(C)C(=O)C2C(O)CCN2c2nc(C)cc(C(F)(F)F)c2C#N)c1
9.83 µM: IC50 (second compound 10 µM)
> 10 µM: IC50 (second compound 0.0316 µM) | IC50 (second compound 0.1 µM) | IC50 (second compound 0.316 µM) | IC50 (second compound 1 µM) | IC50 (second compound 3.16 µM)
inactive: viability, T/C [1] 86.5% | viability, T/C [2] 88.5% | viability, T/C [3] 87.6% | viability, T/C [4] 88.9% | viability, T/C [5] 94.1% | viability, T/C [6] 62.1% | viability, T/C [7] 94.6% | viability, T/C [8] 81.8% | viability, T/C [9] 103% | viability, T/C [10] 86.7% | viability, T/C [11] 79.5% | viability, T/C [12] 50.9% | viability, T/C [13] 104% | viability, T/C [14] 123% | viability, T/C [15] 89.7% | viability, T/C [16] 102% | viability, T/C [17] 93.7% | viability, T/C [18] 52.3% | viability, T/C [19] 92.8% | viability, T/C [20] 88.9% | viability, T/C [21] 78.5% | viability, T/C [22] 102% | viability, T/C [23] 107% | viability, T/C [24] 72.3% | viability, T/C [25] 89.5% | viability, T/C [26] 95.8% | viability, T/C [27] 92% | viability, T/C [28] 104% | viability, T/C [29] 74% | viability, T/C [30] 65.2% | viability, T/C [31] 103% | viability, T/C [32] 89.2% | viability, T/C [33] 107% | viability, T/C [34] 87% | viability, T/C [35] 76.1% | viability, T/C [36] 49.1%

CC1COCCN1c1cc(-c2ccnn2C)c2ccnc(-c3ccn[nH]3)c2n1 (stereo unspecified) + Cc1cccc(N(C)C(=O)C2C(O)CCN2c2nc(C)cc(C(F)(F)F)c2C#N)c1
0.433 µM: IC50 (second compound 3.16 µM)
0.388 µM: IC50 (second compound 0.0316 µM)
inactive: viability, T/C [1] 94.8% | viability, T/C [2] 75.6% | viability, T/C [3] 58% | viability, T/C [4] 27.5% | viability, T/C [5] 12.6% | viability, T/C [7] 106% | viability, T/C [8] 81.6% | viability, T/C [9] 51.1% | viability, T/C [10] 28% | viability, T/C [11] 12.6% | viability, T/C [13] 106% | viability, T/C [14] 76.7% | viability, T/C [15] 52.3% | viability, T/C [16] 23.1% | viability, T/C [17] 12.2% | viability, T/C [19] 83.7% | viability, T/C [20] 99.3% | viability, T/C [21] 56.1% | viability, T/C [22] 24.1% | viability, T/C [23] 12.2% | viability, T/C [24] 8.86% | viability, T/C [25] 73.2% | viability, T/C [26] 77.7% | viability, T/C [27] 53.8% | viability, T/C [28] 32.8% | viability, T/C [29] 10.1% | viability, T/C [31] 90.7% | viability, T/C [32] 76.5% | viability, T/C [33] 50.2% | viability, T/C [34] 23.3% | viability, T/C [35] 10.8%
active: viability, T/C [6] 8.02% | viability, T/C [12] 7.36% | viability, T/C [18] 10.2% | viability, T/C [30] 6.72% | viability, T/C [36] 7.42%
0.313 µM: IC50 (second compound 10 µM)
0.298 µM: IC50 (second compound 0.316 µM)
0.34 µM: IC50 (second compound 0.1 µM)
0.414 µM: IC50 (second compound 1 µM)
